Experiments:
[1] = tested on: a variety of test species; test: Pre-emergence herbicidal activity (glasshouse, sprayed one day after sowing, evaluated after 13 days); assay type: in vivo; parameters: key: 5=total damage to plant; 0=no damage to plant; details: application pre-emergence, rate 1000 g/Ha, scale 0-5
How it was run: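 Seeds sown in standard soil in pots, held one day in glasshouse (24/16 °C day/night, 14 h light, 65% humidity), then sprayed with aqueous solution of compound formulated in acetone/water 50:50 with 0.5% Tween 20. Grown on under same conditions, watered twice daily; damage scored after 13 days (0 = none, 5 = total).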

[2] = tested on: a variety of test species; test: Post-emergence herbicidal activity (glasshouse, sprayed after 8 days cultivation, evaluated after 13 days); assay type: in vivo; parameters: key: 5=total damage to plant; 0=no damage to plant; details: rate 1000 g/Ha, scale 0-5
How it was run: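 Pot-grown plants, 8 days after sowing, were sprayed with compound formulated in acetone/water (50:50) with 0.5% Tween 20. Glasshouse conditions 24/16° C day/night, 14 h light, 65% humidity; damage scored after 13 days on a 0 (none) to 5 (total) scale.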

Row | Structure (SMILES) | Pre-emergence herbicidal damage score, ABUTH [1] | Pre-emergence herbicidal damage score, ALOMY [1] | Pre-emergence herbicidal damage score, AMARE [1] | Pre-emergence herbicidal damage score, ECHCG [1] | Pre-emergence herbicidal damage score, SETFA [1] | Pre-emergence herbicidal damage score, ZEAMX [1] | ABUTH (Abutilon theophrasti) damage score, application post-emergence [2] | ALOMY (Alopecurus myosuroides) damage score, application post-emergence [2] | AMARE (Amaranthus retroflexus) damage score, application post-emergence [2] | ECHCG (Echinochloa crus-galli) damage score, application post-emergence [2] | SETFA (Setaria faberi) damage score, application post-emergence [2] | ZEAMX (Zea mays) damage score, application post-emergence [2] | melting point [°C]
1 | CCOC1=C(C)C(O)N(c2cc(C(C)(C)C#N)on2)C1=O (stereo not shown) [D6] | 5 | 4 | 5 | 5 | 4 | 3 | 5 | 4 | 5 | 5 | 5 | 2 | 90 to 92
2 | COC1=C(C)C(OC(C)=O)N(c2cc(C(C)(C)C)on2)C1=O (stereo not shown) [D7] | 5 | 3 | 5 | 4 | 5 | 2 | 5 | 4 | 5 | 5 | 5 | 3 | 118 to 124
3 | CCOC1=C(C)CN(c2cc(C(C)(C)C#N)on2)C1=O [D8] | 3 | 2 | 4 | 3 | 4 | 2 | 4 | 3 | 5 | 4 | 3 | 0 | 127 to 129
4 | COC1=C(C)CN(c2noc(C(C)C)c2C#N)C1=O [D10] | 4 | 3 | 5 | 5 | 5 | 2 | 4 | 5 | 5 | 5 | 5 | 2 | 131 to 133
5 | COC1=C(C)CN(c2noc(C(C)(C)C)c2C#N)C1=O [D11, 5-tert-butyl-3-(4-methoxy-3-methyl-5-oxo-2H-pyrrol-1-yl)isoxazole-4-carbonitrile] | 4 | 4 | 5 | 5 | 5 | 3 | 5 | 5 | 5 | 5 | 5 | 4 | 138 to 140
6 | COC1=C(C)CN(c2cc(C(C)(C)C#N)on2)C1=O [D12] | 5 | 4 | 5 | 5 | 4 | 2 | 4 | 4 | 5 | 5 | 5 | 2 | 103 to 105
7 | CCC(C)(C)c1onc(N2CC(C)=C(OC)C2=O)c1C#N [D13] | 2 | 2 | 5 | 4 | 2 | 2 | 4 | 5 | 5 | 5 | 5 | 2 | 72 to 74
8 | COC1=C(Cl)C(O)N(c2cc(C(C)(C)C)on2)C1=O (stereo not shown) [E1, 1-(5-tert-butylisoxazol-3-yl)-3-chloro-2-hydroxy-4-methoxy-2H-pyrol-5-one] | 4 | 2 | 5 | 3 | 3 | 2 | 5 | 3 | 5 | 5 | 5 | 0 | 123 to 133
9 | COC1=C(Cl)C(OC(C)=O)N(c2cc(C(C)(C)C)on2)C1=O (stereo not shown) [E2, [1-(5-tert-butylisoxazol-3-yl)-3-chloro-4-methoxy-5-oxo-2H-pyrrol-2-yl]acetate] | 5 | 3 | 5 | 4 | 3 | 1 | 5 | 3 | 5 | 5 | 5 | 0 | 101 to 107
10 | COC1=C(Cl)CN(c2cc(C(C)(C)C)on2)C1=O [E3] | 2 | 1 | 5 | 3 | 3 | 1 | 1 | 0 | 2 | 2 | 4 | 0 | 94 to 106
